Laboratory results as given in US7494714B2, “Surfaces that resist the adsorption of biological species” (President & Fellows of Harvard College, priority 2000, dated 2009).
Read-outs that look alike come from different tables or passages of the source. Where a SMILES comes first, the peptide text is derived from it. [ ]: non-standard residue; d: D form. Sar = CNCC(=O)O

Experiments:
fibrinogen = target: T1, fibrinogen (Bos taurus, UniProt P02672+P02676+P12799); experiment: SPR adsorption of fibrinogen to SAMs / grafted polymer films; type: binding, bovine; settings: for % ML 30 min / dR/dt on / % ML 3 min: fibrinogen; for % ML 30 min / dR/dt on / % Fib off: single-component SAMs (a) and mixed SAMs (b); for % ML 3 min: single-component SAMs (a, RSH) and mixed SAMs (b, RNH2)
T1 sequence (P02672 20-615): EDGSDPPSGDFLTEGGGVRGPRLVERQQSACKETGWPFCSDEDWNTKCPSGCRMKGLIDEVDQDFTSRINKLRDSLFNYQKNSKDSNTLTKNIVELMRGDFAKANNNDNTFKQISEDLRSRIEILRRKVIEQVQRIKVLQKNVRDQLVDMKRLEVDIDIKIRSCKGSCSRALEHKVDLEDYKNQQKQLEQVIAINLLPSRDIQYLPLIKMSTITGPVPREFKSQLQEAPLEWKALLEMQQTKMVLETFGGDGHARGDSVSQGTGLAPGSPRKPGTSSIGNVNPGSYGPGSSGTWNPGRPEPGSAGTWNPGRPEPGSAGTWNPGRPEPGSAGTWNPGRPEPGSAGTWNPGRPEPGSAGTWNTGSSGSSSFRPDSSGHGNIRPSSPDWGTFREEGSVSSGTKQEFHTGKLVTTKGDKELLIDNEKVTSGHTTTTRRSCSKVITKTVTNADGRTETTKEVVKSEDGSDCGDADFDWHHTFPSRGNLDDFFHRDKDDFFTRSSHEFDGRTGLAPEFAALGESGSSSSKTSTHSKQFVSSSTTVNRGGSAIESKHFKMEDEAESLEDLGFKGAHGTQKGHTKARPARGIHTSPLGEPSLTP
T1 sequence (P02676 1-468): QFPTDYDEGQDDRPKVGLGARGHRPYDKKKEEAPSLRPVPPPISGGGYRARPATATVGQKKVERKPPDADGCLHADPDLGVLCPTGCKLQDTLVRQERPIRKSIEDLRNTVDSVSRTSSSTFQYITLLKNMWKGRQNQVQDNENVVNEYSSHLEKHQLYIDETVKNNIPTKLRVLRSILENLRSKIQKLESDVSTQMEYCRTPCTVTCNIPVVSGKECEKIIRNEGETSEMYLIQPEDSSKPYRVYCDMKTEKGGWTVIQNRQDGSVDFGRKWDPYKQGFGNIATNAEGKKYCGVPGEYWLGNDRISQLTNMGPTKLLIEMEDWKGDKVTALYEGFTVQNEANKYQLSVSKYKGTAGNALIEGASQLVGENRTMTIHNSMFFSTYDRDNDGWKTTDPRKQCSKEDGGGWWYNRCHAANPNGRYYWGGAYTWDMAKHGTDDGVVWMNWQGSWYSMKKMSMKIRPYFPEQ
T1 sequence (P12799 25-444): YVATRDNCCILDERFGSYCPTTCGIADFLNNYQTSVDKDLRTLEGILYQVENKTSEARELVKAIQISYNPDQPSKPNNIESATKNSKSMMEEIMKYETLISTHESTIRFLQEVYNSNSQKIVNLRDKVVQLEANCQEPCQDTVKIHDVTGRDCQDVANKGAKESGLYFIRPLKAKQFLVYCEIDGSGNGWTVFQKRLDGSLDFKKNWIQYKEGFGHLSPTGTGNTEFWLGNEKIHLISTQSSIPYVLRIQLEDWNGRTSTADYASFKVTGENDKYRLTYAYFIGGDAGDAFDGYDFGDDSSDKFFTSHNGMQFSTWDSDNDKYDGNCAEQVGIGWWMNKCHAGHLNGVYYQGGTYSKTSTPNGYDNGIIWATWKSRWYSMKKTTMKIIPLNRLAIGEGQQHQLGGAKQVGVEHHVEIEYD

lysozyme = lysozyme (Gallus gallus, UniProt P00698); experiment: SPR adsorption of lysozyme to SAMs / grafted polymer films; type: binding; settings: for % ML 3 min / dR/dt on: lysozyme; for % ML 3 min / dR/dt on / % Lys off: single-component SAMs (a) and mixed SAMs (b)
[1] = mixed SAM —CONRR′/—CO2H, 1 mg/mL fibrinogen flowed 3 min, relative to —CONH(CH2)10CH3/—CO2H SAM
[2] = mixed SAM —CONRR′/—CO2H, 1 mg/mL fibrinogen flowed 30 min
[3] = mixed SAM —CONRR′/—CO2H, 1 mg/mL lysozyme flowed 3 min
[4] = mixed SAM —CONRR′/—CO2H, 1 mg/mL lysozyme flowed 30 min

lysozyme, sequence (P00698 19-147): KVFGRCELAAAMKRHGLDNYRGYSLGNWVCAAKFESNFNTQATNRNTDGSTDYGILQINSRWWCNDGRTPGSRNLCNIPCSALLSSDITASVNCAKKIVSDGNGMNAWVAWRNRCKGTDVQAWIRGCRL

| Compound | % Fiboff (percent decrease in adsorbed protein during 10 minute PBS wash) (fibrinogen; mixed SAM —CONRR′/—CO2H) | dR/dton fibrinogen (maximum initial rate of adsorption) (fibrinogen; mixed SAM —CONRR′/—CO2H) | % MLfib 3 min (fibrinogen; [1]) | % MLfib 30 min (fibrinogen; [2]) | % Lysoff (percent decrease in adsorbed protein during 10 minute PBS wash) (lysozyme; mixed SAM —CONRR′/—CO2H) | dR/dton lysozyme (maximum initial rate of adsorption) (lysozyme; mixed SAM —CONRR′/—CO2H) | % MLlys 3 min (lysozyme; [3]) | % MLlys 30 min (lysozyme; [4]) | further results |
| --- | --- | --- | --- | --- | --- | --- | --- | --- | --- |
| CC(=O)N1CCN(C(=O)CCCCCCCCCCCCCCCS)CC1 [Entry 2a] | – | – | – | – | – | – | – | – | % ML 30 min (fibrinogen): 2.2 ±0.1%; dR/dt on (fibrinogen): 22 ±10 RU/sec; % ML 3 min (fibrinogen): 0.7 ±0.0%; % Fib off (fibrinogen): 6.8 ±5%; % ML 3 min (lysozyme; footnote b (30 minutes)): 0.8 ±0.2%; % ML 3 min (lysozyme): 0.8 ±0.3%; dR/dt on (lysozyme): 100 ±10 RU/sec; % Lys off (lysozyme): 110 ±0% |
| N#CCNCC#N [HN(CH2CN)2] | 7.9 ± 0.9% | 2200 ± 500 RU/sec | 54 ± 3.8% | 73 ± 3% | 110 ± 1% | 2200 ± 500 RU/sec | 36 ± 0.5% | 92 ± 0.3% | – |
| Nc1ccc(O[C@@H]2O[C@H](CO)[C@H](O)[C@H](O)[C@H]2O)cc1 | 17 ± 0.7% | 570 ± 250 RU/sec | 35 ± 5% | 49 ± 2.3% | 254 ± 10% | 1300 ± 260 RU/sec | 11 ± 1.5% | 30 ± 3.3% | – |
| CN(CCN(C)P(=O)(N(C)C)N(C)C)C(=O)CCCCCCCCCCS [Entry 1a] | – | – | – | – | – | – | – | – | % ML 30 min (fibrinogen): 37 ±2%; dR/dt on (fibrinogen): 83 ±40 RU/sec; % ML 3 min (fibrinogen): 13 ±0.2%; % Fib off (fibrinogen): 29 ±0.4%; % ML 3 min (lysozyme; footnote b (30 minutes)): 17 ±0.3%; % ML 3 min (lysozyme): 4.5 ±0.1%; dR/dt on (lysozyme): 330 ±110 RU/sec; % Lys off (lysozyme): 240 ±2% |
| N#CCC(N)=C(C#N)C#N | 11 ± 0.0% | 260 ± 70 RU/sec | 34 ± 1.1% | 58 ± 3% | 370 ± 20% | 1900 ± 400 RU/sec | 13 ± 0.3% | 28 ± 3.7% | – |
| OCCOCCOCCOCCCCCCCCCCCS [Entry 3a, HOEG3(CH2)11SH, reference compound] | – | – | – | – | – | – | – | – | % ML 30 min (fibrinogen): 0.2%; % ML 3 min (fibrinogen): 0.2%; % ML 3 min (lysozyme; footnote b (30 minutes)): 0.2%; % ML 3 min (lysozyme): 0.2% |
| CN(C)C(=O)CN | 19 ± 0.2% | 202 ± 80 RU/sec | 18 ± 0.5% | 33 ± 0.5% | 350 ± 10% | 590 ± 270 RU/sec | 7.2 ± 1% | 15 ± 1% | – |
| NCC1COCCOCCOCCOCCOCCO1 (stereo not drawn) | 9.7 ± 0.5% | 320 ± 110 RU/sec | 44 ± 0.9% | 59 ± 2.3% | 14 ± 1.3% | 75 ± 40 RU/sec | 3.9 ± 0.3% | 9.6 ± 0.5% | – |
| Nc1ccc(O[C@@H]2O[C@H](CO)[C@@H](O)[C@H](O)[C@H]2O)cc1 | 38 ± 0.8% | 1200 ± 270 RU/sec | 51 ± 1.8% | 67 ± 0.9% | 78 ± 1.7% | 1200 ± 270 RU/sec | 27 ± 3.3% | 83 ± 2.3% | – |
| CNCC(=O)N(C)CC(=O)N(C)CC(=O)N(C)CC(=O)N(C)C [H(CH3)N(Sar)4N(CH3)2] (H-[Sar][Sar][Sar][Sar]-NMe2) | – | 70 ± 20 RU/sec | 0.5 ± 0.0% | 1.7 ± 0.2% | 70 ± 30% | 80 ± 40 RU/sec | 0.8 ± 0.1% | 1.5 ± 0.7% | – |
| CNCCNC | 7.5 ± 0.4% | 77 ± 30 RU/sec | 4.4 ± 0.8% | 8.5 ± 0.0% | 110 ± 5% | 110 ± 60 RU/sec | 4.3 ± 0.1% | 7.8 ± 0.0% | – |
| CNC[C@H](OC)[C@H](OC)[C@H](OC)[C@H](COC)OC | 18 ± 2% | 50 ± 50 RU/sec | 0.8 ± 0.5% | 2.9 ± 1.4% | 17 ± 40% | 100 ± 70 RU/sec | 0.4 ± 0.4% | 6.1 ± 4% | % ML 30 min (fibrinogen): 2.9 ±1.4%; dR/dt on (fibrinogen): 50 ±50 RU/sec; % ML 3 min (fibrinogen): 0.8 ±0.5%; % Fib off (fibrinogen): 18 ±2%; % ML 3 min (lysozyme; footnote b (30 minutes)): 6.1 ±4%; % ML 3 min (lysozyme): 0.4 ±0.4%; dR/dt on (lysozyme): 100 ±70 RU/sec; % Lys off (lysozyme): 17 ±40% |
| (CH3)2N(Sar)3-NHCO(CH2)15SH [Entry 5a] | – | – | – | – | – | – | – | – | % ML 30 min (fibrinogen): 2.0%; dR/dt on (fibrinogen): 24 RU/sec; % ML 3 min (fibrinogen): 0.7%; % Fib off (fibrinogen): 5.7%; % ML 3 min (lysozyme; footnote b (30 minutes)): 2.0%; % ML 3 min (lysozyme): 1.8%; dR/dt on (lysozyme): 33 RU/sec; % Lys off (lysozyme): 18% |
| CC(=O)NCCN | 13 ± 1% | 50 ± 5 RU/sec | 14 ± 1% | 40 ± 2% | 580 ± 20% | 530 ± 120 RU/sec | 1.4 ± 0.0% | 5.4 ± 0.3% | – |
| CNCC(=O)N(C)C | 28 ± 0.7% | 50 ± 23 RU/sec | 1.0 ± 0.0% | 9.1 ± 0.3% | 740 ± 9% | 290 ± 130 RU/sec | 0.2 ± 0.1% | 2.4 ± 0.3% | – |
| CNC [HN(CH3)2] | – | – | – | – | – | – | – | – | % Fiboff (percent decrease in adsorbed protein during 10 minute PBS wash) (fibrinogen): 24 ± 0.1%; % MLfib 3 min (fibrinogen): 26 ± 6%; % MLfib 30 min (fibrinogen): 54 ± 0.8%; dR/dton fibrinogen (maximum initial rate of adsorption) (fibrinogen): 160 ± 30 RU/sec; % Lysoff (percent decrease in adsorbed protein during 10 minute PBS wash) (lysozyme): 120 ± 1%; % MLlys 3 min (lysozyme): 43 ± 16%; % MLlys 30 min (lysozyme): 80 ± 3%; dR/dton lysozyme (maximum initial rate of adsorption) (lysozyme): 2400 ± 260 RU/sec |
| N[C@H]1C(O)O[C@H](CO)[C@@H](O)[C@@H]1O (stereo partly drawn) | 11 ± 0.0% | 210 ± 120 RU/sec | 31 ± 0.7% | 55 ± 1.1% | 330 ± 0.2% | 620 ± 280 RU/sec | 7.8 ± 0.2% | 25 ± 2.1% | – |
| OCCOCCN1CCNCC1 | 1.8 ± 0.1% | 54 ± 10 RU/sec | 1.2 ± 0.1% | 3.7 ± 0.0% | 110 ± 5% | 20 ± 2 RU/sec | 4.5 ± 0.0% | 27 ± 10% | – |
